Test results reported in PubChem BioAssay AID1845216 (Molecular Pharmacology Branch, DTP, NCI, 2023).

Test system: SW 982 tumor spheroid viability
Assay: Anticancer human tumor SW 982 cell line growth inhibition;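 note: spheroids exposed to compound for 7 days before readout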
Conditions: spheroids with HUVEC and MSC; for IC50: curve of first compound; for viability, T/C: stronger effect = lower value; active = viability on the fitted dose curve at most 10% of control; inactive = the rest
Outline: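 Complex tumor spheroids combined malignant cells with endothelial cells and mesenchymal stem cells. DNA-damaging drugs and DNA repair inhibitors were tested alone and in combination, at half-log dilutions down from clinical Cmax (top 10 microM if Cmax unknown), 0.25% DMSO final.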

[1] = second compound 0.003 µM, first compound 0.0316 µM
[2] = second compound 0.003 µM, first compound 0.1 µM
[3] = second compound 0.003 µM, first compound 0.316 µM
[4] = second compound 0.003 µM, first compound 1 µM
[5] = second compound 0.003 µM, first compound 3.16 µM
[6] = second compound 0.003 µM, first compound 10 µM
[7] = second compound 0.00949 µM, first compound 0.0316 µM
[8] = second compound 0.00949 µM, first compound 0.1 µM
[9] = second compound 0.00949 µM, first compound 0.316 µM
[10] = second compound 0.00949 µM, first compound 1 µM
[11] = second compound 0.00949 µM, first compound 3.16 µM
[12] = second compound 0.00949 µM, first compound 10 µM
[13] = second compound 0.03 µM, first compound 0.0316 µM
[14] = second compound 0.03 µM, first compound 0.1 µM
[15] = second compound 0.03 µM, first compound 0.316 µM
[16] = second compound 0.03 µM, first compound 1 µM
[17] = second compound 0.03 µM, first compound 3.16 µM
[18] = second compound 0.03 µM, first compound 10 µM
[19] = second compound 0.0949 µM, first compound 0.0316 µM
[20] = second compound 0.0949 µM, first compound 0.1 µM
[21] = second compound 0.0949 µM, first compound 0.316 µM
[22] = second compound 0.0949 µM, first compound 1 µM
[23] = second compound 0.0949 µM, first compound 3.16 µM
[24] = second compound 0.0949 µM, first compound 10 µM
[25] = second compound 0.3 µM, first compound 0.0316 µM
[26] = second compound 0.3 µM, first compound 0.1 µM
[27] = second compound 0.3 µM, first compound 0.316 µM
[28] = second compound 0.3 µM, first compound 1 µM
[29] = second compound 0.3 µM, first compound 3.16 µM
[30] = second compound 0.3 µM, first compound 10 µM

CC(C)n1c(=O)n(C)c2cnc3cc(F)c(-c4ccc(OCCCN5CCCCC5)nc4)cc3c21 + CC[C@@]1(O)C(=O)OCc2c1cc1n(c2=O)Cc2cc3c(CN(C)C)c(O)ccc3nc2-1
1.53 µM: IC50 (second compound 0.00949 µM)
inactive: viability, T/C [1] 80.2% | viability, T/C [2] 77% | viability, T/C [3] 78.9% | viability, T/C [4] 62.5% | viability, T/C [5] 30.2% | viability, T/C [6] 20.3% | viability, T/C [7] 71.6% | viability, T/C [8] 79.7% | viability, T/C [9] 64% | viability, T/C [10] 61.4% | viability, T/C [11] 34.4% | viability, T/C [12] 18.4% | viability, T/C [13] 71.6% | viability, T/C [14] 81% | viability, T/C [15] 59.4% | viability, T/C [16] 53.6% | viability, T/C [17] 25.1% | viability, T/C [18] 17.1% | viability, T/C [19] 72.6% | viability, T/C [20] 65.5% | viability, T/C [21] 58.6% | viability, T/C [22] 39.3% | viability, T/C [23] 24.9% | viability, T/C [24] 15.9% | viability, T/C [25] 56.4% | viability, T/C [26] 46.2% | viability, T/C [27] 40.8% | viability, T/C [28] 30% | viability, T/C [29] 18.6% | viability, T/C [30] 14.5%
1.57 µM: IC50 (second compound 0.003 µM)
0.0768 µM: IC50 (second compound 0.3 µM)
0.513 µM: IC50 (second compound 0.0949 µM)
0.952 µM: IC50 (second compound 0.03 µM)

COc1ccc([C@@H](O)c2cc(-c3ncnc4cc(N5CCOCC5)ccc34)c(F)cc2Cl)nn1 + CC[C@@]1(O)C(=O)OCc2c1cc1n(c2=O)Cc2cc3c(CN(C)C)c(O)ccc3nc2-1
0.13 µM: IC50 (second compound 0.3 µM)
1.19 µM: IC50 (second compound 0.03 µM)
4.47 µM: IC50 (second compound 0.003 µM)
2.15 µM: IC50 (second compound 0.00949 µM)
inactive: viability, T/C [1] 96.9% | viability, T/C [2] 95.5% | viability, T/C [3] 92.1% | viability, T/C [4] 90.9% | viability, T/C [5] 59.8% | viability, T/C [6] 27.1% | viability, T/C [7] 86.4% | viability, T/C [8] 78.5% | viability, T/C [9] 80.7% | viability, T/C [10] 72.2% | viability, T/C [11] 38.9% | viability, T/C [12] 15% | viability, T/C [13] 73.8% | viability, T/C [14] 76.2% | viability, T/C [15] 70.3% | viability, T/C [16] 53.9% | viability, T/C [17] 26.8% | viability, T/C [18] 12.8% | viability, T/C [19] 70.6% | viability, T/C [20] 68.8% | viability, T/C [21] 60.5% | viability, T/C [22] 36.6% | viability, T/C [23] 18.5% | viability, T/C [24] 12.8% | viability, T/C [25] 52.2% | viability, T/C [26] 55.7% | viability, T/C [27] 40.6% | viability, T/C [28] 23.2% | viability, T/C [29] 13.1% | viability, T/C [30] 10.2%
0.524 µM: IC50 (second compound 0.0949 µM)

O=C(c1cc(Cc2n[nH]c(=O)c3ccccc23)ccc1F)N1CCN(C(=O)C2CC2)CC1 + COc1cc2c(cc1O)CCNC21CSC2c3c(OC(C)=O)c(C)c4c(c3C(COC1=O)N1C(O)C3Cc5cc(C)c(OC)c(O)c5C(C21)N3C)OCO4
inactive: viability, T/C (second compound 30 pM, first compound 0.0949 µM) 96.8% | viability, T/C (second compound 30 pM, first compound 0.3 µM) 93.2% | viability, T/C (second compound 30 pM, first compound 0.949 µM) 97.8% | viability, T/C (second compound 30 pM, first compound 3 µM) 71.7% | viability, T/C (second compound 30 pM, first compound 9.49 µM) 47.4% | viability, T/C (second compound 30 pM, first compound 30 µM) 38.8% | viability, T/C (second compound 94.9 pM, first compound 0.0949 µM) 93.1% | viability, T/C (second compound 94.9 pM, first compound 0.3 µM) 91.4% | viability, T/C (second compound 94.9 pM, first compound 0.949 µM) 92.6% | viability, T/C (second compound 94.9 pM, first compound 3 µM) 76.2% | viability, T/C (second compound 94.9 pM, first compound 9.49 µM) 59.8% | viability, T/C (second compound 94.9 pM, first compound 30 µM) 39.9% | viability, T/C (second compound 0.0003 µM, first compound 0.0949 µM) 74.4% | viability, T/C (second compound 0.0003 µM, first compound 0.3 µM) 80.7% | viability, T/C (second compound 0.0003 µM, first compound 0.949 µM) 70.5% | viability, T/C (second compound 0.0003 µM, first compound 3 µM) 70.8% | viability, T/C (second compound 0.0003 µM, first compound 9.49 µM) 43.8% | viability, T/C (second compound 0.0003 µM, first compound 30 µM) 28.1% | viability, T/C (second compound 0.000949 µM, first compound 0.0949 µM) 32.8% | viability, T/C (second compound 0.000949 µM, first compound 0.3 µM) 27.3% | viability, T/C (second compound 0.000949 µM, first compound 0.949 µM) 26.8% | viability, T/C (second compound 0.000949 µM, first compound 3 µM) 18.3% | viability, T/C (second compound 0.000949 µM, first compound 9.49 µM) 11.1%
7.8 µM: IC50 (second compound 30 pM)
7.27 µM: IC50 (second compound 0.0003 µM)
< 0.0949 µM: IC50 (second compound 0.000949 µM) | IC50 (second compound 0.003 µM)
active: viability, T/C (second compound 0.000949 µM, first compound 30 µM) 2.5% | viability, T/C (second compound 0.003 µM, first compound 0.0949 µM) 0.52% | viability, T/C (second compound 0.003 µM, first compound 0.3 µM) 0.45% | viability, T/C (second compound 0.003 µM, first compound 0.949 µM) 0.51% | viability, T/C (second compound 0.003 µM, first compound 3 µM) 0.63% | viability, T/C (second compound 0.003 µM, first compound 9.49 µM) 0.83% | viability, T/C (second compound 0.003 µM, first compound 30 µM) 1.26%
16.3 µM: IC50 (second compound 94.9 pM)
